Reference: patent publication US5977435A, “Plant phosphatases” (Performance Plants, Inc., priority 1997, dated 1999)
Where a name gives a salt, the structure may show the parent alone. Read-outs that look alike come from different tables or passages of the source.

What was measured:
potato phosphatase [1] = target: T1, potato phosphatase (Solanum tuberosum, UniProt Q6J5M8); test: Phosphatase assay B, substrate specificity; details: for Vmax: pH 5.8, 25° C; for activity of purified enzyme with compound as substrate: tested at 5 mM
T1 sequence (Q6J5M8 with tags, fused parts or gaps V118I/E238V/S277N/V282G/E319A/A394T/S415A/T416I/D418E/I426Y/H428S/N437A): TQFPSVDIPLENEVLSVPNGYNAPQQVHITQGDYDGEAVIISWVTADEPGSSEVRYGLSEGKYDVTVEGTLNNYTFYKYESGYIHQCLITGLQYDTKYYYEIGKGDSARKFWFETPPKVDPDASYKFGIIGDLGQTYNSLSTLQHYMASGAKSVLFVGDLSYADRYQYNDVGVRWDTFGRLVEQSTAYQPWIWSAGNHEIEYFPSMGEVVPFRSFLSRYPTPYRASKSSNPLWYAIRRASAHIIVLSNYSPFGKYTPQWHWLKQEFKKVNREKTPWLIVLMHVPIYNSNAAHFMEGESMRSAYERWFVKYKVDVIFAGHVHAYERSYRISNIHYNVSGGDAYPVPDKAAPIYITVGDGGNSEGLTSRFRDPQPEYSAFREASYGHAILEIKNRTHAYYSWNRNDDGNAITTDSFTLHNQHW
Description: Phosphatase activity was determined using assay B and a wide range of compounds, tested at a total concentration of 5 mM unless otherwise specified.
Phosphatase (0.05 units) was incubated in 1.5 mL cuvettes with 0.9 mL of 50 mM MES-NaOH (pH 5.8) containing 4 mM MgCl2 and an alternative substrate (5 mM unless otherwise indicated) for 6 min at 25° C. Reactions were terminated by the sequential addition of 0.1 mL reagent A (3 M H2 SO4 containing 20 mM ammonium molybdate) and […] of 1% (v/v) Triton X-100. Samples were incubated at 25° C. for 20 min and the A660 was determined. To calculate activities, a standard curve over the range of […] Pi was constructed for each set of assays. Assays were performed in triplicate and controls were run for background amounts of Pi present at each substrate concentration by adding reagent A before the enzyme.

potato phosphatase [2] = target: T1, potato phosphatase; test: biochemical; format: biochemical; design: mature chain from Thr30, C-terminus not determined; details: for activation of the phosphatase: 4 mM, added as Cl- salt, Ca, Co, Mn with no added Mg2+
Description: Unless otherwise stated all kinetic studies of the potato phosphatase were performed with PEP using assay A (infra).
The phosphatase was activated approximately 40% in the presence of saturating (4 mM) Mg^2+ (added as MgCl2). Ca^2+, Co^2+, and Mn^2+ were individually tested as Cl^- salts at 4 mM, with no added Mg^2+, and found to uniformly activate the enzyme by about 30%. […]. […] All subsequent kinetic studies were conducted in the presence of 4 mM MgCl2.
(§1) Assays were initiated by the addition of enzyme preparation. One unit of phosphatase activity is defined as the quantity of enzyme that would catalyze the hydrolysis of 1 […] of substrate/min at 25° C.

potato phosphatase [3] = target: T1, potato phosphatase; test: biochemical; format: biochemical; design: mature chain from Thr30, C-terminus not determined
Description: Enzyme activity in the presence of effectors is expressed relative to the control set at 100%.
as §1

[4] = system: potato tuber phosphotyrosyl proteins; test: Dephosphorylation of potato tuber phosphotyrosyl proteins by potato tuber phosphatase; format: biochemical, Solanum tuberosum; details: 1 mM present during incubation
Description: A desalted potato tuber extract was incubated at 25° C. in the absence (-) and presence (+) of 30 units/mL purified potato tuber phosphatase. Aliquots were removed at 2 and 19 h and analyzed by immunoblotting using anti-(P-Tyr) IgG (Kamps and Sefton, 1988). The relative P-Tyr content of the 7 antigenic polypeptides was estimated by laser densitometric quantification of the immunoblots as described in the examples. Unless otherwise noted, all values represent the means±SE of triplicate determinations. ^a, the mean of duplicate determinations.
Electroblotting was performed by the method of Moorhead and Plaxton (1990), with the addition of […] o-vanadate to the transfer buffer when maintenance of phosphotyrosyl residues was desired. All immunoblots to be probed with the anti-(black mustard PEP-specific phosphatase) IgG (Duff et al, 1991a) were first pre-treated with sodium m-periodate according to Laine (1988) so as to oxidize antigenic oligosaccharide chains of endogenous tuber glycoproteins. Immunological detection of phosphotyrosylated tuber proteins using anti-(P-Tyr) IgG (Kamps and Sefton, 1988) was performed as referenced above except that the blocking buffer contained 5% (w/v) bovine serum albumin (fraction V) and 1% (w/v) ovalbumin instead of 3% (w/v) defatted milk powder.
Antigenic polypeptides were visualized using an alkaline-phosphatase-taggedsecondary antibody (Moorhead and Plaxton, 1990). Immunological specificities were confirmed by performing immunoblots in which rabbit preimmune serum was substituted for the affinity-purified IgGs. An LKB Ultroscan XL Enhanced Laser Densitometer was used to scan indicated immunoblots. Densitometric data were analysed using the LKB Gelscan XL software (version 2.1). Immunoreactive polypeptides were quantified in terms of their relative absorbance at 633 nm wavelength (A633).
Peeled and diced potato tuber tissue (5 g) was homogenized with a Polytron in 1 volume of 100 mM MES-NaOH (pH 5.8) containing 2 mM PMSF, 2 mM DTT, and 1 mM EDTA. The homogenate was centrifuged for 10 min at 13,000 g in an Eppendorf microfuge, and a 3-mL aliquot of the supernatant fluid was passed at 4° C. through a BioRad Econo-Pac 10DG desalting column that had been pre-equilibrated in homogenization buffer lacking PMSF. Aliquots (0.1 mL) of the desalted crude extract were incubated at 25° C. with and without 3 units of the purified potato phosphatase. Samples were removed at 0, 2 and 19 h and analyzed by immunoblotting using the anti-(P-Tyr) IgG as described supra. Laser densitometric scanning and immunoquantification of the blots was performed as described supra.

[5] = purified potato phosphatase, assay B
[6] = pH 5.8; read-out: Relative Activity
[7] = addition 5 mM; PEP 0.25 mM; control = 100%
[8] = 5 mM; PEP 0.25 mM; no effect = ±15% control activity
[9] = pH 5.8, read-out: Relative Activity
[10] = addition 0.001 mM; PEP 0.25 mM; control = 100%

Nc1ncnc2c1ncn2[C@@H]1O[C@H](COP(=O)(O)OP(=O)(O)O)[C@@H](O)[C@H]1O [Mg-ADP]
Vmax (potato phosphatase [1]; [5]): 46 units/mg

[Ca+2] [Ca^2+]
activation of the phosphatase (potato phosphatase [2]): about 30%

[Cl-].[Cl-].[Mg+2] [Mg^2+]
activation of the phosphatase (potato phosphatase [2]): approximately 40%

[Cl-].[Cl-].[Zn+2] [ZnCl2]
inhibition of phosphatase activity (potato phosphatase [2]; 5 mM, in place of added Mg2+): completely inhibited

[Mn+2] [Mn^2+]
activation of the phosphatase (potato phosphatase [2]): about 30%

[Cl-].[Na+] [NaCl]
effect on enzyme activity (potato phosphatase [3]): no effect

O=C1O[C@H]([C@@H](O)CO)C(O)=C1O [Ascorbate]
activity at 5000 µM (potato phosphatase [3]; [6]): 12%

N[C@@H](CC(=O)O)C(=O)O [Asparatate]
Relative Activity (potato phosphatase [3]; [7]): 64%

O=C(O)CC(O)(CC(=O)O)C(=O)O [Mg-citrate]
effect on enzyme activity (potato phosphatase [3]; [8]): no effect

[Co+2] [Co^2+]
activation of the phosphatase (potato phosphatase [2]): about 30%

C=C1[C@@H](O)[C@@H]2O[C@]3(CC[C@H](/C=C/[C@@H](C)[C@@H]4CC(C)=C[C@@]5(O[C@H](C[C@@](C)(O)C(=O)O)CC[C@H]5O)O4)O3)CC[C@H]2O[C@@H]1[C@@H](O)C[C@H](C)[C@H]1O[C@@]2(CCCCO2)CC[C@H]1C [okadaic acid]
effect on enzyme activity (potato phosphatase [3]; 1 μM; PEP 0.25 mM; no effect = ±15% control activity): no effect

O=C(O)CN(CCN(CC(=O)O)CC(=O)O)CC(=O)O [EDTA]
activity at 5000 µM (potato phosphatase [3]; [9]): 32% | inhibition at 5000 µM (potato phosphatase [2]; pH 5.8, read-out: reduction of activity): ~65%

O=C(O)CN(CCOCCOCCN(CC(=O)O)CC(=O)O)CC(=O)O [EGTA]
activity at 5000 µM (potato phosphatase [3]; [6]): 72%

NC(CCC(=O)O)C(=O)O (stereo not drawn) [Glutaamate]
activity at 5000 µM (potato phosphatase [3]; [6]): 30%

O=P(O)(O)OP(=O)(O)O [PPi]
Km (potato phosphatase [1]; apparent Km, purified potato phosphatase, assay B): 4.42 mM | Vmax (potato phosphatase [1]; [5]): 1728 units/mg

CCN1C(=O)C=CC1=O [N-ethylmaleimide]
effect on enzyme activity after preincubation of enzyme (potato phosphatase [3]; 1 mM, preincubation up to 2 min at 25° C): no effect

N[C@@H](CCC(=O)N[C@@H](CS)C(=O)NCC(=O)O)C(=O)O [GSH]
activity at 5000 µM (potato phosphatase [3]; [9]): 131%

Nc1ncnc2c1ncn2[C@@H]1O[C@H](COP(=O)(O)O)[C@@H](O)[C@H]1O [AMP]
activity of purified enzyme with compound as substrate (potato phosphatase [1]; assay B): little or no activity

C=C(OP(=O)(O)O)C(=O)O [PEP]
Vmax (potato phosphatase [1]; [5]): 764 units/mg

O=C(O)C(O)C(O)C(=O)O (stereo not drawn) [tartrate]
effect on enzyme activity (potato phosphatase [3]; [8]): no effect

[Cl-].[K+] [KCl]
effect on enzyme activity (potato phosphatase [3]; [8]): no effect

C[C@@H](OP(=O)(O)O)[C@H](N)C(=O)O [P-Tbr]
Vmax (potato phosphatase [1]; [5]): 99 units/mg

O=P(O)(O)OC1C(OP(=O)(O)O)C(OP(=O)(O)O)C(OP(=O)(O)O)C(OP(=O)(O)O)C1OP(=O)(O)O (stereo not drawn) [Phytate, the salt of 1,2,3,4,5,6-cyclohexanehexolphosphoric acid]
activity at 100 µM (potato phosphatase [3]; [6]): 48%

Molybdate
Relative Activity (potato phosphatase [3]; [10]): 40% | Relative Activity (potato phosphatase [3]; addition 0.01 mM; PEP 0.25 mM; control = 100%): 7% | Relative Activity (potato phosphatase [3]; addition 1 mM; PEP 0.25 mM; control = 100%): 0%

[F-].[Na+] [NaF]
Relative Activity (potato phosphatase [3]; [7]): 56%

O=P(O)(O)OC1O[C@H](CO)[C@@H](O)[C@H](O)[C@H]1O (stereo partly drawn) [Glc-1-P]
activity of purified enzyme with compound as substrate (potato phosphatase [1]; assay B): little or no activity

NH4 Cl
effect on enzyme activity (potato phosphatase [3]; [8]): no effect

[O]=[V]([O-])([O-])[O-] [Vanadate]
effect on the phosphatase-caused decrease in protein P-Tyr content [4]: negated | Relative Activity (potato phosphatase [3]; addition 0.005 mM; PEP 0.25 mM; control = 100%): 40% | Relative Activity (potato phosphatase [3]; addition 0.05 mM; PEP 0.25 mM; control = 100%): 7%

B1: Phosvitin: egg yolk storage phosphoprotein (protein)
chain: AEFGTEPDAKTSSSSSSASSTATSSSSSSASSPNRKKPMDEEENDQVKQARNKDASSSSRSSKSSNSSKRSSSKSSNSSKRSSSSSSSSSSSSRSSSSSSSSSSNSKSSSSSSKSSSSSSRSRSSSKSSSSSSSSSSSSSSKSSSSRSSSSSSKSSSHHSHSHHSGHLNGSSSSSSSSRSVSHHSHEHHSGHLEDDSSSSSSSSVLSKIWGRHEIYQ
modifications: phosphoserine (Ser is the predominant phosphorylated amino acid of phosvitin)
notes: egg yolk storage phosphoprotein
phosphoprotein phosphatase activity (potato phosphatase [1]; phosvitin at 50 μg/ml (125 .eta.M)): 220 units/mg | Relative Activity (potato phosphatase [3]; [10]): 19%
